Results published in patent US20190255091A1, “RNAi AGENTS FOR [sequence] B VIRUS INFECTION” (priority 2016, published 2019).

How the values were obtained:
[1] = tested on: Hepatitis B Virus (HBV); test: Serum HBV DNA levels in pHBV model mice (qPCR); format: in vivo; details: single s.c. injection day 1, Example 7
From the text: (§1) Six to eight-week-old female NOD.CB17-Prkdscid/NcrCrl (NOD-SCID) mice were transiently transfected in vivo with MC-HBV1.3 by hydrodynamic tail vein injection (Yang P L et al. “Hydrodynamic injection of viral DNA: a mouse model of acute hepatitis B virus infection,” PNAS USA 2002 Vol. 99: p. 13825-13830), administered 30 to 45 days prior to administration of an HBV RNAi agent or control. MC-HBV1.3 is a plasmid-derived minicircle that contains the same terminally redundant human hepatitis B virus sequence HBV1.3 as in plasmid pHBV1.3 and in the HBV1.3.32 transgenic mice (GenBank accession #V01460) (Guidotti L G et al., “High-level hepatitis B virus replication in transgenic mice,” J Virol 1995 Vol. 69, p 6158-6169.). 5 or 10 μg MC-HBV1.3 in Ringer's Solution in a total volume of 10% of the animal's body weight was injected into mice via tail vein to create pHBV model of chronic HBV infection. The solution was injected through a 27-gauge needle in 5-7 seconds as previously described (Zhang G et al., “High levels of foreign gene expression in hepatocytes after tail vein injection of naked plasmid DNA.” Human Gene Therapy 1999 Vol. 10, p 1735-1737.). At pre-dose (either day 1 pre-dose, day −1, or day −2), Hepatitis B surface antigen (HBsAg) HBsAg expression levels in serum were measured by ELISA and the mice were grouped according to average HBsAg expression levels.
(§2) HBV expression levels were normalized to pre-administration expression levels and to control mice injected with phosphate buffered saline (“PBS”).
Equal volumes of serum from mice in a group or subgroup were pooled to a final volume of 100 μL. DNA was isolated from serum samples using the QIAamp MinElute Virus Spin Kit (Qiagen, Valencia, Calif.) following the manufacturer's instructions. Sterile 0.9% saline was added to each sample to a final volume of 200 μL. Serum samples were added to tubes containing buffer and protease. Carrier RNA was added to aid in the isolation of small amounts of DNA. […] After incubating 15 min at 56° C., nucleic acids were precipitated from the lysates with ethanol and the entire solution applied to a column. After washing, the samples were eluted into a volume of 50 μL Buffer AVE.
The number of copies of HBV genomes in DNA isolated from the pHBV mouse model serum was determined by qPCR. Plasmid pSEAP-HBV353-777, encoding a short segment of the HBV genome within the S gene (bases 353-777 of GenBank accession #V01460), was used to create a six log standard curve. Samples with recovery of DNA below 2 standard deviations from the average, based on detection of pHCR/UbC-SEAP were omitted. TaqMan chemistry-based primers and probes with fluor/ZEN/IBFQ are utilized.
qPCR assays were performed on a 7500 Fast or StepOne Plus Real-Time PCR system (Life Technologies). For evaluation of HBV DNA in serum, DNA was isolated from singlet or duplicate purification steps from pooled group serum samples. Quantitations of HBV DNA and recovery control plasmid were determined by qPCR reactions performed in triplicate. The probes to quantitate HBV and pHCR/UbC-SEAP were included in each reaction.

[2] = tested on: Hepatitis B Virus (HBV); test: Serum HBeAg levels in pHBV model mice (ELISA); format: in vivo; details: single s.c. injection day 1, Example 7; for Average HBeAg levels normalized to pre-treatment and PBS control: pooled serum
From the text: as §1, §2
HBeAg analysis was performed with the HBeAg enzyme linked immunosorbent assay (ELISA) as described by the manufacturer (DiaSorin) using serum diluted 4- to 20-fold in 5% nonfat dry milk. The amount of antigen was determined in the linear range of the assay and quantitated against HBeAg protein standards (Fitzgerald Industries International, catalog #30-AH18, Acton, Mass.).
HBeAg expression for each animal was normalized to the control group of mice injected with PBS in order to account for the non-treatment related decline in expression of MC-HBV1.3. For evaluation of HBeAg in serum, HBeAg is analyzed from pooled group or subgroup serum samples. First, the HBeAg level for each pooled group or subgroup was divided by the pre-treatment level of expression in the same group or subgroup in order to determine the ratio of expression “normalized to pre-treatment”. Expression at a specific time point was then normalized to the control group by dividing the “normalized to pre-treatment” ratio for a group or subgroup by the average “normalized to pre-treatment” ratio of all samples from the normal PBS control group.

AD04776: HBV RNAi agent duplex AM05850-AS/AM06150-SS (antisense UACCAAUUUAUGCCUACAGCC; sense GGCUGUAGGCAUAAAUUGGUA; chemistry not fully specified)
Average Serum HBV DNA levels normalized to pre-treatment and PBS control ([1]; Day 8, 1.0 mg/kg): 0.601 ± 0.388
Average Serum HBV DNA levels normalized to pre-treatment and PBS control ([1]; Day 8, 2.0 mg/kg): 0.363 ± 0.128
Average Serum HBV DNA levels normalized to pre-treatment and PBS control ([1]; Day 8, 4.0 mg/kg): 0.224 ± 0.150
Average Serum HBV DNA levels normalized to pre-treatment and PBS control ([1]; Day 15, 1.0 mg/kg): 0.319 ± 0.125
Average Serum HBV DNA levels normalized to pre-treatment and PBS control ([1]; Day 15, 2.0 mg/kg): 0.374 ± 0.197
Average Serum HBV DNA levels normalized to pre-treatment and PBS control ([1]; Day 15, 4.0 mg/kg): 0.263 ± 0.185
Average Serum HBV DNA levels normalized to pre-treatment and PBS control ([1]; Day 22, 1.0 mg/kg): 0.279 ± 0.138
Average Serum HBV DNA levels normalized to pre-treatment and PBS control ([1]; Day 22, 2.0 mg/kg): 0.275 ± 0.146
Average Serum HBV DNA levels normalized to pre-treatment and PBS control ([1]; Day 22, 4.0 mg/kg): 0.335 ± 0.204
Average Serum HBV DNA levels normalized to pre-treatment and PBS control ([1]; Day 29, 1.0 mg/kg): 0.506 ± 0.525
Average Serum HBV DNA levels normalized to pre-treatment and PBS control ([1]; Day 29, 2.0 mg/kg): 0.385 ± 0.141
Average Serum HBV DNA levels normalized to pre-treatment and PBS control ([1]; Day 29, 4.0 mg/kg): 0.449 ± 0.108
Average Serum HBV DNA levels normalized to pre-treatment and PBS control ([1]; Day 36, 1.0 mg/kg): 0.444 ± 0.407
Average Serum HBV DNA levels normalized to pre-treatment and PBS control ([1]; Day 36, 2.0 mg/kg): 0.721 ± 0.043
Average Serum HBV DNA levels normalized to pre-treatment and PBS control ([1]; Day 36, 4.0 mg/kg): 0.603 ± 0.068
Average HBeAg fold knockdown normalized to pre-treatment and PBS control ([2]; Day 8, 1.0 mg/kg): 2.6 Fold KD
Average HBeAg levels normalized to pre-treatment and PBS control ([2]; Day 8, 1.0 mg/kg): 0.381
Average HBeAg fold knockdown normalized to pre-treatment and PBS control ([2]; Day 8, 2.0 mg/kg): 3.6 Fold KD
Average HBeAg levels normalized to pre-treatment and PBS control ([2]; Day 8, 2.0 mg/kg): 0.275
Average HBeAg fold knockdown normalized to pre-treatment and PBS control ([2]; Day 8, 4.0 mg/kg): 5.2 Fold KD
Average HBeAg levels normalized to pre-treatment and PBS control ([2]; Day 8, 4.0 mg/kg): 0.193
Average HBeAg fold knockdown normalized to pre-treatment and PBS control ([2]; Day 15, 1.0 mg/kg): 2.7 Fold KD
Average HBeAg levels normalized to pre-treatment and PBS control ([2]; Day 15, 1.0 mg/kg): 0.368
Average HBeAg fold knockdown normalized to pre-treatment and PBS control ([2]; Day 15, 2.0 mg/kg): 3.9 Fold KD
Average HBeAg levels normalized to pre-treatment and PBS control ([2]; Day 15, 2.0 mg/kg): 0.255
Average HBeAg fold knockdown normalized to pre-treatment and PBS control ([2]; Day 15, 4.0 mg/kg): 4.7 Fold KD
Average HBeAg levels normalized to pre-treatment and PBS control ([2]; Day 15, 4.0 mg/kg): 0.213
Average HBeAg fold knockdown normalized to pre-treatment and PBS control ([2]; Day 22, 1.0 mg/kg): 2.8 Fold KD
Average HBeAg levels normalized to pre-treatment and PBS control ([2]; Day 22, 1.0 mg/kg): 0.355
Average HBeAg fold knockdown normalized to pre-treatment and PBS control ([2]; Day 22, 2.0 mg/kg): 2.7 Fold KD
Average HBeAg levels normalized to pre-treatment and PBS control ([2]; Day 22, 2.0 mg/kg): 0.370
Average HBeAg fold knockdown normalized to pre-treatment and PBS control ([2]; Day 22, 4.0 mg/kg): 3.8 Fold KD
Average HBeAg levels normalized to pre-treatment and PBS control ([2]; Day 22, 4.0 mg/kg): 0.260
Average HBeAg fold knockdown normalized to pre-treatment and PBS control ([2]; Day 29, 1.0 mg/kg): 1.8 Fold KD
Average HBeAg levels normalized to pre-treatment and PBS control ([2]; Day 29, 1.0 mg/kg): 0.564
Average HBeAg fold knockdown normalized to pre-treatment and PBS control ([2]; Day 29, 2.0 mg/kg): 2.0 Fold KD
Average HBeAg levels normalized to pre-treatment and PBS control ([2]; Day 29, 2.0 mg/kg): 0.495
Average HBeAg fold knockdown normalized to pre-treatment and PBS control ([2]; Day 29, 4.0 mg/kg): 3.3 Fold KD
Average HBeAg levels normalized to pre-treatment and PBS control ([2]; Day 29, 4.0 mg/kg): 0.307
Average HBeAg fold knockdown normalized to pre-treatment and PBS control ([2]; Day 36, 1.0 mg/kg): 2.1 Fold KD
Average HBeAg levels normalized to pre-treatment and PBS control ([2]; Day 36, 1.0 mg/kg): 0.483
Average HBeAg fold knockdown normalized to pre-treatment and PBS control ([2]; Day 36, 2.0 mg/kg): 2.2 Fold KD
Average HBeAg levels normalized to pre-treatment and PBS control ([2]; Day 36, 2.0 mg/kg): 0.449
Average HBeAg fold knockdown normalized to pre-treatment and PBS control ([2]; Day 36, 4.0 mg/kg): 2.2 Fold KD
Average HBeAg levels normalized to pre-treatment and PBS control ([2]; Day 36, 4.0 mg/kg): 0.464
